pIC50: −log10 of the molar value.
Legend:
[1] = tested on: human coronary artery smooth muscle cells; assay: Anti-proliferative activity in synchronized cultured human coronary artery smooth muscle cells stimulated with two percent fetal bovine serum; assay type: cell-based; details: for effect on the anti-proliferative rapamycin dose response curve: agent added to rapamycin-treated synchronized cells, topotecan to 300 nanomolar, etoposide to eight hundred nanomolar, Panzem to 100 micromolar
Description: (§1) The multiple curves represent various concentrations of topotecan ranging from zero to three hundred nanomolar concentrations.
(§2) The multiple curves represent various concentrations of etoposide ranging from zero to eight hundred nanomolar concentrations.
The multiple curves represent various concentrations of Panzem® ranging from zero to 100 micromolar concentrations.

[2] = tested on: human coronary artery smooth muscle cell survival; details: 6.6 nanomolar to 30,000.00 nanomolar
Description: In vitro cytotoxicity tests or assays may be utilized to determine if drugs, agents and/or compounds are potentially toxic and the level of toxicity. Essentially, in vitro cytotoxicity assays determine acute necrotic effects by a drug causing direct cellular damage. The idea behind these assays is that toxic chemicals affect basic functions of cells which are common to all cells. […] There are a number of different assays that may be utilized. In the present invention, the cytotoxicity assay utilized is based upon the measurement of cellular metabolic activity. A reduction in metabolic activity is an indication of cellular damage. Tests that can measure metabolic function measure cellular ATP levels or mitochondrial activity via MTS metabolism. FIG. 69 is a graphical representation of the results of an MTS assay of Panzem®.

cell viability = assay: Cell viability assay; assay type: cell-based
Description: as §1, §2

[3] = tested on: human coronary artery smooth muscle cells; assay: Anti-proliferative activity in non-synchronized cultured human coronary artery smooth muscle cells stimulated with two percent fetal bovine serum; assay type: cell-based; details: for effect on the anti-proliferative rapamycin dose response curve: agent added to rapamycin-treated non-synchronized cells, mycophenolic acid zero to one thousand nanomolar, cladribine zero to nine hundred nanomolar
Description: The multiple curves represent various concentrations of mycophenolic acid ranging from zero to one thousand nanomolar concentrations.
FIG. 58 illustrates, in graphical format, the anti-proliferative activity of cladribine in non-synchronized cultured human coronary artery smooth muscle cells stimulated with two percent fetal bovine serum.
The multiple curves represent various concentrations of cladribine ranging from zero to nine hundred nanomolar concentrations.

[4] = tested on: human smooth muscle cells; assay: Cladribine Example, PDGF-stimulated cell proliferation (cell count), smooth muscle cells; assay type: cell-based; details: from the IC50 values
Experimental: To assess the ability of cladribine to prevent cell proliferation, human smooth muscle or endothelial cells (Clonetics, Walkersville, Md.) were seeded at a density of 2000 cells/cm^2 (approximately 3600 cells/well) into each well of 12-well plates and cultured with 1.5 ml of growth medium containing five percent fetal calf serum (FCS). After twenty-four hours, the growth medium was changed and fresh medium containing 10 ng/ml platelet-derived growth factor AB (PDGF AB; LIFE Technologies), as well as various concentrations of cladribine (0.001-10,000 nM) were added with triplicate wells. Medium was replaced with fresh cladribine-containing medium after three days. On day six, cells were detached by trypsinization to yield a cell suspension, lightly centrifuged to pellet and then counted manually using a Neubauer hemocytometer system. Cell viability was assessed by trypan blue exclusion.

[5] = In vivo release kinetics from rapamycin/cladribine EVA/BMA coating on Bx Velocity stents, Yorkshire pigs; set-up: species or system porcine; details: 600 microgram basecoat, 200 microgram BMA topcoat
Description: (§3) The basecoat is applied to Bx Velocity® stents and implanted into Yorkshire pigs.
as §3

[6] = Liquid formulations of sirolimus with PEG 200, ethanol and water; concentrations by liquid chromatography; assay type: physicochemical; details: 4 mg/ml formulation with PEG 200, ethanol and water
Description: In accordance with exemplary embodiments of the present invention, a series of liquid formulations were developed for the local or regional delivery of water insoluble compounds such as sirolimus and its analogs, including CCl-779, ABT-578 and everolimus, through weeping balloons and catheter injection needles. […] These liquid formulations increase the apparent solubility of the pharmacologically active but water insoluble compounds by two to four orders of magnitude as compared to the solubility limits of the compounds in water. These liquid formulations rely on the use of a very small amount of organic solvents such as Ethanol (typically less than two percent) and a larger amount of safe amphiphilic (of or relating to a molecule having a polar, water soluble group attached to a non-polar, water insoluble […]) excipients such as polyethylene glycol (PEG 200, PEG 400) and vitamin E TPGS to enhance the solubility of the compounds. These liquid formulations of highly water insoluble compounds are stable and readily flowable at room temperature. Certain excipients, such as Vitamin E TPGS and BHT may be utilized to enhance the storage stability of sirolimus compounds through their anti-oxidation properties. […]

[7] = In vivo release kinetics from rapamycin/mycophenolic acid EVA/BMA coating, porcine pharmacokinetics studies; details: 180 micrograms each of rapamycin and mycophenolic acid in 600 microgram basecoat, with or without BMA topcoat
[8] = tested on: human coronary artery smooth muscle cell proliferation; assay: In vitro cell culture study of coronary artery smooth muscle cell proliferation; assay type: cell-based
Description: FIG. 51 is a graph of the inhibition of coronary artery smooth muscle cells by trichostatin A in a cell culture study.

tumor cell lines = details: cited from earlier work

## COc1cc2c(cc1O)CC[C@@H]1[C@@H]2CC[C@]2(C)[C@@H](O)CC[C@@H]12 [Panzem®, 2-methoxyestradiol]
[1]
  effect on the anti-proliferative rapamycin dose response curve: increases the percent of inhibition of rapamycin alone
[1]; synchronized cells, two percent fetal bovine serum
  anti-proliferative activity alone: extremely effective inhibitor
[2]
  cytotoxicity (MTS assay): do not reduce human coronary artery smooth muscle cell survival

## COc1cc([C@@H]2c3cc4c(cc3[C@@H](O[C@@H]3O[C@@H]5CO[C@@H](C)O[C@H]5[C@H](O)[C@H]3O)[C@H]3COC(=O)[C@H]23)OCO4)cc(OC)c1O [Etoposide, etoposide]
[1]
  effect on the anti-proliferative rapamycin dose response curve: potentiate the anti-proliferative activity of rapamycin
Cell viability; concentrations up to ten micromolar
  cytotoxicity in cell viability assay: non-cytotoxic

## Nc1nc(Cl)nc2c1ncn2[C@H]1C[C@H](O)[C@@H](CO)O1 [Cladribine, 2-chlorodeoxyadenosine]
[3]
  effect on the anti-proliferative rapamycin dose response curve: potentiate the anti-proliferative activity of rapamycin
[3]; non-synchronized cells, two percent fetal bovine serum
  inhibition of human coronary artery smooth muscle cell proliferation: completely inhibits
[4]
  potency on smooth muscle cells relative to endothelial cells: approximately twice as potent
[5]
  in vivo elution from EVA/BMA basecoat compared with rapamycin: elutes more rapidly than rapamycin

## CO[C@H]1C[C@@H]2CC[C@@H](C)[C@@](O)(O2)C(=O)C(=O)N2CCCC[C@H]2C(=O)O[C@H]([C@H](C)C[C@@H]2CC[C@@H](O)[C@H](OC)C2)CC(=O)[C@H](C)/C=C(\C)[C@@H](O)[C@@H](OC)C(=O)[C@H](C)C[C@H](C)/C=C/C=C/C=C/1C [Rapamycin, rapamycin]
[6]
  concentration relative to the solubility of sirolimus in water: about four hundred to about one thousand times higher

## COc1c(C)c2c(c(O)c1C/C=C(\C)CCC(=O)O)C(=O)OC2 [mycophenolic acid]
[3]
  effect on the anti-proliferative rapamycin dose response curve: potentiates the anti-proliferative activity of rapamycin
[7]
  in vivo elution from EVA/BMA basecoat compared with rapamycin: elutes more completely over a shorter duration than the rapamycin

## CC(/C=C/C(=O)NO)=C\[C@@H](C)C(=O)c1ccc(N(C)C)cc1 [trichostatin A]
[8]; human coronary artery smooth muscle cells, read-out: anti-proliferative IC50
  pIC50: ~8.22
[8]; in vitro cell culture
  inhibition of human coronary artery smooth muscle cell proliferation: completely inhibit
Tumor cell lines
  anti-proliferative IC50: low nM range

## CC[C@@]1(O)C(=O)OCc2c1cc1n(c2=O)Cc2cc3c(CN(C)C)c(O)ccc3nc2-1 [Topotecan, topotecan]
[1]
  effect on the anti-proliferative rapamycin dose response curve: potentiate the anti-proliferative activity of rapamycin
Cell viability; concentrations up to one micromolar
  cytotoxicity in cell viability assay: non-cytotoxic
